Experiments:
[1] = system: laser-induced thrombosis in the arterioles and venules of the rat mesentery; test: laser-induced thrombosis in arterioles of the rat mesentery; assay type: in vivo, rat (female Sprague-Dawley); conditions: for percentage improvement compared with the placebo controls: 10 mg/kg xanthine derivative and, 1 hour later, 1 mg/kg acetylsalicylic acid orally; for percentage improvement compared with the placebo controls / inhibition in vivo at 10 mg/kg: n = 3; for inhibition in vivo at 10 mg/kg: Rattus norvegicus, po, 10 mg/kg xanthine derivative orally, read-out: percentage improvement compared with the placebo controls; for Changes from controls, % / Changes from controls, absolute / Number of shots: single substance
Description: The evaluation was carried out by analysis by vital microscopy (Nature, 218 (1968) 887 and Haemostasis 13 (1983) 61 and IRCS Med. Sci. 12 (1984) 91).
The test substances were administered in 0.9% sodium chloride solution (which contained 1% carboxymethylcellulose (Serva, Heidelberg)) either orally, intraperitoneally or intravenously. Control animals were treated in the corresponding manner but without the test substances. The experimental animals used were male or female Sprague-Dawley or Wistar rats.
The animals which were to be investigated underwent s.c. premedication with 0.1 mg of atropine sulfate in solution and were anesthetized with 100 mg of ketamine hydrochloride and 4 mg of xylazine per kg of body weight i.p. The investigation made use of arterioles and venules of the mesentery, which was coated with degassed liquid paraffin, having a diameter of about 13 μm. The beam of a 4 W argon laser (supplied by Spectra Physics, Darmstadt) was introduced coaxially, by means of a beam adaptation and adjustment system (supplied by BTG, Munich), into the inverted optical path of a microscope (ICM 405, LD-Epipland 40/0.60; supplied by Zeiss, Oberkochen). The wavelength used was 514.5 nm, with an energy above the objective of 30.5 mW. The exposure time per single shot was 1/15 sec. All the measuring operations were recorded by video camera (Trinicon tube, Sony, Cologne) and stored in a recorder (Sony, U-matic 3/4"). The test substances were administered in various doses to the experimental animals, orally one hour, and on i.v. administration 10 min., before the start of the experiment, control animals receiving the same amount of placebo.
The number of shots needed to induce a defined thrombus is counted.
The results of the experiment were subjected to statistical analysis using the .chi.^2 test (L. Cavalli-Sforza, Biometrie (Biostatistics), Stuttgart, 1969, pages 49 et seq.). […]

platelet aggregation = test: ex vivo platelet aggregation (arachidonic acid, Born aggregometer); assay type: in vivo, rabbit
[2] = system: erythrocyte filterability; test: erythrocyte filterability in adjuvant arthritis rats; assay type: in vivo, rat; conditions: oral 21 days
Description: (§1) The hemorheological, antithrombotic, antiaggregatory and antiinflammatory effects of the combinations according to the invention were investigated after oral administration for 21 days in the pathological model of adjuvant arthritis (induced with Mycobacterium butyricum) is the rat by the method of Clincal Hemorheology 3 (1983) 469-480, and were compared with those of the appropriate individual substances. Blood was taken from the thoracic aorta 1 hour after the last administration of substance. All the details of the determination of the hemorheological effect were as described in Clinical Hemorheology 4 (1984) 263-273. The erythocyte deformability was quantitatively determined in a filtrometer (Myrenne MF 4, Roetgen, Germany) by evaluation of the initial gradient of the flow curve.

[3] = system: induced platelet aggregation; test: collagen-induced platelet aggregation in arthritic rats; assay type: in vivo, rat; conditions: 30 mg, oral 21 days
Description: as §1
The measurements of platelet aggregation were carried out as described above in detail. However, instead of arachidonic acid 0.04 mg of collagen was used to induce platelet aggregation in 1 ml of platelet-rich plasma (PA II aggregometer from Myrenne, Roetgen).

rat aortas = rat aortas ex vivo, treatment of the animals; cited from earlier work
[4] = system: adjuvant arthritis (Mycobacterium butyricum) in the rat; test: antiinflammatory effect in adjuvant arthritis (paw edema, necrosis index); assay type: in vivo; conditions: 30 mg
Description: as §1
The antiflammatory effect was quantitatively measured, as quoted above, using the volume of the edema of the paw and using the standard necrosis index.

[5] = system: tendency to thrombosis in arthritic rat; test: laser-induced tendency to thrombosis in arthritic rats; assay type: in vivo; conditions: 30 mg, oral 21 days
Description: as §1
The antithrombotic effect was measured using the laser model as described above.

platelets = conditions: only at concentrations above those used in medicinal treatment; cited from earlier work
erythrocytes = conditions: treatment with pentoxifylline; cited from earlier work

CCCn1cnc2c1c(=O)n(CCCCC(C)=O)c(=O)n2C [1-(5-Oxohexyl)-3-methyl-7-propylxanthine]
percentage improvement compared with the placebo controls [1]: 56% | inhibition in vivo at 10 mg/kg [1]: 42%

CCCCn1c(=O)c2c(ncn2CC(C)=O)n(CCCC)c1=O [1-n-Butyl-3-n-butyl-7-(2-oxopropyl-)-xanthine]
percentage improvement compared with the placebo controls [1]: 50% | inhibition in vivo at 10 mg/kg [1]: 33%

CCCn1cnc2c1c(=O)n(CCCCC(C)O)c(=O)n2C (stereo not drawn) [1-(5-Hydroxyhexyl)-3-methyl-7-propylxanthine]
percentage improvement compared with the placebo controls [1]: 53% | inhibition in vivo at 10 mg/kg [1]: 40%

CC(O)CCCCn1c(=O)c2c(ncn2C)n(C)c1=O (stereo not drawn) [1-(5-Hydroxyhexyl)-3,7-dimethyl-xanthine, 1-(5-hydroxyhexyl)-3,7-dimethylxanthine]
percentage improvement compared with the placebo controls [1]: 68% | inhibition in vivo at 10 mg/kg [1]: 52%

CC(O)CCCCn1cnc2c1c(=O)n(C(C)C)c(=O)n2C (stereo not drawn) [1-(Isopropyl)-3-methyl-7-(5-hydroxy-hexyl-)-xanthine]
percentage improvement compared with the placebo controls [1]: 36% | inhibition in vivo at 10 mg/kg [1]: 31%

CCCn1c(=O)c2c(ncn2CCCCC(C)O)n(C)c1=O (stereo not drawn) [1-Propyl-3-methyl-7-(5-hydroxyhexyl-)-xanthine]
percentage improvement compared with the placebo controls [1]: 42% | inhibition in vivo at 10 mg/kg [1]: 35%

CC(=O)Oc1ccccc1C(=O)O [DL-Lysine monoacetylsalicylate, D,L-lysine monoacetylsalicylate]
Aggregation amplitude E ex vivo (platelet aggregation; I, at 30 min, 1,5 mg/kg i.v. at 15 min): 23,5 | Aggregation amplitude E ex vivo (platelet aggregation; I, at 45 min, 1,5 mg/kg i.v. at 15 min and 0,5 mg/kg at 35 min): 19,5

CCn1c(=O)c2c(ncn2CCCCC(C)=O)n(CC)c1=O [1-Ethyl-3-ethyl-7-(5-oxohexyl-)-xanthine]
percentage improvement compared with the placebo controls [1]: 48% | inhibition in vivo at 10 mg/kg [1]: 41%

CC(=O)CCCCn1cnc2c1c(=O)n(CC(C)C)c(=O)n2C [1-(2-Methylpropyl)-3-methyl-7-(5-oxohexyl-)-xanthine]
percentage improvement compared with the placebo controls [1]: 39% | inhibition in vivo at 10 mg/kg [1]: 28%

CC(=O)CCCCn1c(=O)c2c(ncn2C)n(C)c1=O [Pentoxifylline, 1-(5-oxohexyl)-3,7-dimethylxanthine]
erythrocyte filterability ([2]; 30 mg): 79% | erythrocyte filterability in arthritic rats (in words) [2]: can be increased again | induced platelet aggregation [3]: 94% | Changes from controls, % ([1]; 5 mg/kg oral): 21% | Changes from controls, absolute ([1]; 5 mg/kg oral): 0,46 | Number of shots ([1]; 5 mg/kg oral): 2,63 | Changes from controls, % ([1]; 10 mg/kg oral): 54% | Changes from controls, absolute ([1]; 10 mg/kg oral): 1,16 | Number of shots ([1]; 10 mg/kg oral): 3,33 | Changes from controls, % ([1]; 30 mg/kg oral): 83% | Changes from controls, absolute ([1]; 30 mg/kg oral): 1,8 | Number of shots ([1]; 30 mg/kg oral): 3,97 | -x (number of shots) ([1]; Table 1b, 10 mg/kg pentoxifylline orally without acetylsalicylic acid): 3,27 | % change from controls ([1]; Table 1b, 10 mg/kg pentoxifylline orally without acetylsalicylic acid, p < 0,05): +49% | effect in laser-induced thrombosis ([1]; oral dose 10 mg/kg): significant effect | effect in laser-induced thrombosis ([1]; single oral dose 5 mg/kg): not significant | inhibition of thrombus formation ([1]; single oral dose 5 mg/kg): 20% | release of a substance having antiaggregatory activity (rat aortas): can be increased | Percentage improvement, volume of paw edema, left paw [4]: 3% | Percentage improvement, volume of paw edema, right paw [4]: 0% | Aggregation amplitude E ex vivo (platelet aggregation; III, at 45 min, 10 mg/kg i.v. at 15 min): 22 | Aggregation amplitude E ex vivo (platelet aggregation; III, at 120 min, 10 mg/kg i.v. at 15 min and 10 mg/kg at 60 min): 20 | tendency to thrombosis (number of shots) [5]: 87% | in vitro aggregation of platelets (platelets): can be inhibited | deformability of the erythrocytes (erythrocytes): improved

CC(C)Cn1c(=O)c2c(ncn2CCCCC(C)O)n(C)c1=O (stereo not drawn) [1-(2-Methylpropyl)-3-methyl-7-(5-hydroxyhexyl)-xanthine]
percentage improvement compared with the placebo controls [1]: 39% | inhibition in vivo at 10 mg/kg [1]: 29%

CC(=O)CCCCn1cnc2c1c(=O)n(CCC(C)C)c(=O)n2C [1-(3-Methylbutyl-3-methyl-7-(5-oxo-hexyl)-xanthine]
percentage improvement compared with the placebo controls [1]: 35% | inhibition in vivo at 10 mg/kg [1]: 26%

CC(C)Cn1cnc2c1c(=O)n(CCCCC(C)O)c(=O)n2C (stereo not drawn) [1-(5-Hydroxyhexyl)-3-methyl-7-(2-methyl-propyl)-xanthine]
percentage improvement compared with the placebo controls [1]: 34% | inhibition in vivo at 10 mg/kg [1]: 23%

CC(C)CCn1c(=O)c2c(ncn2CCCCC(C)O)n(C)c1=O (stereo not drawn) [1-(3-Methylbutyl)-3-methyl-7-(5-hydroxyhexyl-)-xanthine]
percentage improvement compared with the placebo controls [1]: 37% | inhibition in vivo at 10 mg/kg [1]: 28%

CCCn1cnc2c1c(=O)n(CCC(C)=O)c(=O)n2C [1-(3-Oxobutyl)-3-methyl-7-propyl-xanthine]
percentage improvement compared with the placebo controls [1]: 49% | inhibition in vivo at 10 mg/kg [1]: 40%

CCCCCCn1c(=O)c2c(ncn2C)n(C)c1=O [1-Hexyl-3,7-dimethylxanthine]
percentage improvement compared with the placebo controls [1]: 46% | inhibition in vivo at 10 mg/kg [1]: 39%

CC(=O)CCCCn1c(=O)c2c(ncn2CC(C)C)n(C)c1=O [1-(5-Oxohexyl)-3-methyl-7-(2-methyl-propyl-)-xanthine]
percentage improvement compared with the placebo controls [1]: 39% | inhibition in vivo at 10 mg/kg [1]: 28%
